What was measured:
[1] = system: RAW264.7; assay: Antiinflammatory activity against LPS-stimulated mouse RAW264.7 cells assessed as COX2 levels at 50 umol/L by ELISA (reference value: 159.64 +/- 13.56 pg/mL); format: functional
[2] = system: RAW264.7; assay: Antiinflammatory activity against LPS-stimulated mouse RAW264.7 cells assessed as NO levels at 5 umol/L by ELISA (reference value: 0.95 +/- 0.052 umol/mL); format: functional
[3] = system: RAW264.7; assay: Antiinflammatory activity against LPS-stimulated mouse RAW264.7 cells assessed as COX2 levels at 5 umol/L by ELISA (reference value: 159.64 +/- 13.56 pg/mL); format: functional
[4] = Inhibition of NFkappaB signaling pathway in LPS-stimulated mouse RAW264.7 cells assessed as protein levels at 25 umol/L by ELISA (reference value: 1.23 +/- 0.06 pg/mL); format: cell-based
[5] = system: RAW264.7; assay: Antiinflammatory activity against LPS-stimulated mouse RAW264.7 cells assessed as PGE2 levels at 25 umol/L by ELISA (reference value: 33.2 +/- 2.33 pg/mL); format: functional
[6] = system: RAW264.7; assay: Antiinflammatory activity against LPS-stimulated mouse RAW264.7 cells assessed as PGE2 levels at 50 umol/L by ELISA (reference value: 33.2 +/- 2.33 pg/mL); format: functional
[7] = Inhibition of NFkappaB signaling pathway in LPS-stimulated mouse RAW264.7 cells assessed as protein levels at 50umol/L by ELISA (reference value: 1.23 +/- 0.06 pg/mL); format: cell-based
[8] = system: RAW264.7; assay: Antiinflammatory activity against LPS-stimulated mouse RAW264.7 cells assessed as iNOS levels at 5 umol/L by ELISA (reference value: 31.63 +/- 3.26 U/mL); format: functional
[9] = system: RAW264.7; assay: Antiinflammatory activity against LPS-stimulated mouse RAW264.7 cells assessed as NO levels at 25 umol/L by ELISA (reference value: 0.95 +/- 0.052 umol/mL); format: functional
[10] = system: RAW264.7; assay: Antiinflammatory activity against LPS-stimulated mouse RAW264.7 cells assessed as IL1beta levels at 25 umol/L by ELISA (reference value: 8.70 +/- 0.365 pg/mL); format: functional
[11] = system: RAW264.7; assay: Antiinflammatory activity against LPS-stimulated mouse RAW264.7 cells assessed as TNFalpha levels at 25 umol/L by ELISA (reference value: 183.21 +/- 5.36 pg/mL); format: functional
[12] = system: RAW264.7; assay: Cytotoxicity against LPS-stimulated mouse RAW264.7 cells assessed as reduction in cell viability at 50 umol/L after 24 hrs by MTT assay; format: cell-based; settings: raw264.7, 24 h, 50 µM
[13] = system: RAW264.7; assay: Antiinflammatory activity against LPS-stimulated mouse RAW264.7 cells assessed as IL1beta levels at 50 umol/L by ELISA (reference value: 8.70 +/- 0.365 pg/mL); format: functional
[14] = system: RAW264.7; assay: Cytotoxicity against mouse RAW264.7 cells assessed as reduction in cell viability at 50 umol/L after 24 hrs by MTT assay; format: cell-based; settings: raw264.7, 24 h, 50 µM
[15] = system: RAW264.7; assay: Antiinflammatory activity against LPS-stimulated mouse RAW264.7 cells assessed as iNOS levels at 50 umol/L by ELISA (reference value: 31.63 +/- 3.26 U/mL); format: functional
[16] = system: RAW264.7; assay: Antiinflammatory activity against LPS-stimulated mouse RAW264.7 cells assessed as NO levels at 50 umol/L by ELISA (reference value: 0.95 +/- 0.052 umol/mL); format: functional
[17] = system: RAW264.7; assay: Antiinflammatory activity against LPS-stimulated mouse RAW264.7 cells assessed as PGE2 levels at 5 umol/L by ELISA (reference value: 33.2 +/- 2.33 pg/mL); format: functional
[18] = Inhibition of NFkappaB signaling pathway in LPS-stimulated mouse RAW264.7 cells assessed as protein levels at 5 umol/L by ELISA (reference value: 1.23 +/- 0.06 pg/mL); format: cell-based
[19] = system: RAW264.7; assay: Antiinflammatory activity against LPS-stimulated mouse RAW264.7 cells assessed as TNFalpha levels at 50 umol/L by ELISA (reference value: 183.21 +/- 5.36 pg/mL); format: functional
[20] = system: RAW264.7; assay: Antiinflammatory activity against LPS-stimulated mouse RAW264.7 cells assessed as IL1beta levels at 5 umol/L by ELISA (reference value: 8.70 +/- 0.365 pg/mL); format: functional
[21] = system: RAW264.7; assay: Antiinflammatory activity against LPS-stimulated mouse RAW264.7 cells assessed as TNFalpha levels at 5 umol/L by ELISA (reference value: 183.21 +/- 5.36 pg/mL); format: functional
[22] = system: RAW264.7; assay: Antiinflammatory activity against LPS-stimulated mouse RAW264.7 cells assessed as COX2 levels at 25 umol/L by ELISA (reference value: 159.64 +/- 13.56 pg/mL); format: functional
[23] = system: RAW264.7; assay: Antiinflammatory activity against LPS-stimulated mouse RAW264.7 cells assessed as iNOS levels at 25 umol/L by ELISA (reference value: 31.63 +/- 3.26 U/mL); format: functional
[24] = system: RAW264.7; assay: Antiinflammatory activity against LPS-stimulated mouse RAW264.7 cells assessed as downregulation of iNOS levels by ELISA; format: functional, cell-based
[25] = system: RAW264.7; assay: Antiinflammatory activity against LPS-stimulated mouse RAW264.7 cells assessed as downregulation of PGE2 levels by ELISA; format: functional, cell-based
[26] = Inhibition of NFkappaB signaling pathway in LPS-stimulated mouse RAW264.7 cells by ELISA; format: cell-based
[27] = system: RAW264.7; assay: Antiinflammatory activity against LPS-stimulated mouse RAW264.7 cells assessed as downregulation of NO levels by ELISA; format: functional, cell-based
[28] = system: RAW264.7; assay: Antiinflammatory activity against LPS-stimulated mouse RAW264.7 cells assessed as downregulation of COX2 levels by ELISA; format: functional, cell-based
[29] = system: RAW264.7; assay: Antiinflammatory activity against LPS-stimulated mouse RAW264.7 cells assessed as PGE2 levels by ELISA (reference value: 33.2 +/- 2.33 pg/mL); format: functional
[30] = system: RAW264.7; assay: Antiinflammatory activity against LPS-stimulated mouse RAW264.7 cells assessed as COX2 levels by ELISA (reference value: 159.64 +/- 13.56 pg/mL); format: functional
[31] = system: RAW264.7; assay: Antiinflammatory activity against LPS-stimulated mouse RAW264.7 cells assessed as iNOS levels by ELISA (reference value: 31.63 +/- 3.26 U/mL); format: functional
[32] = system: RAW264.7; assay: Antiinflammatory activity against LPS-stimulated mouse RAW264.7 cells assessed as NO levels by ELISA (reference value: 0.95 +/- 0.052 umol/mL); format: functional
[33] = system: RAW264.7; assay: Antiinflammatory activity against LPS-stimulated mouse RAW264.7 cells assessed as TNFalpha levels by ELISA (reference value: 183.21 +/- 5.36 pg/mL); format: functional
[34] = system: RAW264.7; assay: Antiinflammatory activity against LPS-stimulated mouse RAW264.7 cells assessed as IL1beta levels by ELISA (reference value: 8.70 +/- 0.365 pg/mL); format: functional
[35] = Inhibition of NFkappaB signaling pathway in LPS-stimulated mouse RAW264.7 cells assessed as protein levels by ELISA (reference value: 1.23 +/- 0.06 pg/mL); format: cell-based

Row | SMILES | Activity [1] | Activity [2] | Activity [3] | Activity [4] | Activity [5] | Activity [6] | Activity [7] | Activity [8] | Activity [9] | Activity [10] | Activity [11] | Activity [12] | Activity [13] | Activity [14] | Activity [15] | Activity [16] | Activity [17] | Activity [18] | Activity [19] | Activity [20] | also measured
1 | Oc1ccc(/C=C/c2cc(O)cc(O)c2)cc1 [RESVERATROL] | 83.48 pg/mL | 0.38 µmol/mL | 121.49 pg/mL | 0.25 pg/mL | 29.15 pg/mL | 28.81 pg/mL | 0.15 pg/mL | 29.22 U/ml | 0.082 µmol/mL | 4.76 pg/mL | 96.47 pg/mL | Non-toxic | 2.98 pg/mL | Non-toxic | 19.26 U/ml | 0.053 µmol/mL | 31.43 pg/mL | 0.57 pg/mL | 74.91 pg/mL | 5.26 pg/mL | Activity [21]: 109.42 pg/mL; Activity [22]: 104.11 pg/mL; Activity [23]: 25.88 U/ml
2 | COc1c(O)cc2c(c1O)[C@@H]1O[C@H](COC(=O)c3cc(O)c(O)c(O)c3)[C@@H](O)[C@H](O)[C@H]1OC2=O | – | – | – | – | – | – | – | – | – | – | – | Non-toxic | – | Non-toxic | – | – | – | – | – | – | Activity [24]: Dose-dependent effect; Activity [25]: Dose-dependent effect; inhibition [26]: Dose-dependent effect; Activity [27]: Dose-dependent effect; Activity [28]: Dose-dependent effect
3 | COc1c(O)cc2c(c1O)[C@@H]1O[C@H](CO[C@H]3O[C@H](CO)[C@H](O)[C@H](O)[C@H]3O)[C@@H](O)[C@H](O)[C@H]1OC2=O | – | – | – | – | – | – | – | – | – | – | – | Non-toxic | – | Non-toxic | – | – | – | – | – | – | Activity [24]: Dose-dependent effect; Activity [25]: Dose-dependent effect; inhibition [26]: Dose-dependent effect; Activity [27]: Dose-dependent effect; Activity [28]: Dose-dependent effect
4 | O=c1c(O)c(-c2cc(O)c(O)c(O)c2)oc2cc(O)cc(O)c12 [MYRICETIN] | 118.25 pg/mL | 0.42 µmol/mL | 174.99 pg/mL | 0.443 pg/mL | 23.36 pg/mL | 23.33 pg/mL | 0.34 pg/mL | 24.26 U/ml | 0.24 µmol/mL | 0.91 pg/mL | 35.59 pg/mL | Non-toxic | 0.89 pg/mL | Non-toxic | 17.44 U/ml | 0.12 µmol/mL | 27.23 pg/mL | 0.453 pg/mL | 35.44 pg/mL | 3.44 pg/mL | Activity [21]: 36.23 pg/mL; Activity [22]: 142.13 pg/mL; Activity [23]: 21.38 U/ml
5 | COc1c(O)cc2c(c1O)[C@@H]1O[C@H](CO)[C@@H](O)[C@H](O)[C@H]1OC2=O [BERGENIN] | – | – | – | – | – | – | – | – | – | – | – | Non-toxic | – | Non-toxic | – | – | – | – | – | – | Activity [24]: Dose-dependent effect; Activity [25]: Dose-dependent effect; inhibition [26]: Dose-dependent effect; Activity [27]: Dose-dependent effect; Activity [28]: Dose-dependent effect
6 | O=C(O)c1cc(O)c(O)c(O)c1 [GALLIC ACID] | 122.67 pg/mL | 0.88 µmol/mL | 183.21 pg/mL | 0.14 pg/mL | 32.74 pg/mL | 30.26 pg/mL | 0.07 pg/mL | 35.29 U/ml | 0.39 µmol/mL | 4.17 pg/mL | 80.77 pg/mL | Non-toxic | 4.13 pg/mL | Non-toxic | 20.57 U/ml | 0.031 µmol/mL | 33.06 pg/mL | 0.76 pg/mL | 62.59 pg/mL | 4.33 pg/mL | Activity [21]: 103.08 pg/mL; Activity [22]: 149.16 pg/mL; Activity [23]: 29.76 U/ml
7 | COc1ccc2c(c1)c(CC(=O)O)c(C)n2C(=O)c1ccc(Cl)cc1 [INDOMETHACIN] | – | – | – | – | – | – | – | – | – | – | – | – | – | – | – | – | – | – | – | – | Activity [29]: 19.67 pg/mL; Activity [30]: 71.47 pg/mL; Activity [31]: 17.38 U/ml; Activity [32]: 0.17 µmol/mL; Activity [33]: 58.55 pg/mL; Activity [34]: 3.15 pg/mL; Activity [35]: 0.39 pg/mL
8 | O=C1O[C@@H]2[C@@H](O)[C@H](O)[C@@H](CO)O[C@H]2c2c1cc(O)c(O)c2O | – | – | – | – | – | – | – | – | – | – | – | Non-toxic | – | Non-toxic | – | – | – | – | – | – | Activity [24]: Dose-dependent effect; Activity [25]: Dose-dependent effect; inhibition [26]: Dose-dependent effect; Activity [27]: Dose-dependent effect; Activity [28]: Dose-dependent effect
9 | O=c1c(O)cccc2cc(O)c(O)c(O)c12 [PURPUROGALLIN] | 67.23 pg/mL | 0.59 µmol/mL | 120.78 pg/mL | 0.086 pg/mL | 28.11 pg/mL | 27.57 pg/mL | 0.053 pg/mL | 31.37 U/ml | 0.42 µmol/mL | 2.95 pg/mL | 44.36 pg/mL | Non-toxic | 2.88 pg/mL | Non-toxic | 21.64 U/ml | 0.21 µmol/mL | 28.76 pg/mL | 0.32 pg/mL | 42.44 pg/mL | 6.7 pg/mL | Activity [21]: 52.85 pg/mL; Activity [22]: 67.73 pg/mL; Activity [23]: 22.15 U/ml

— ChEMBL document CHEMBL3822374, “Anti-inflammatory polyphenol constituents derived from Cissus pteroclada Hayata” (Bioorg Med Chem Lett, 2016)
